The values that follow come from paper PMC7756341, “Liposomal FRET Assay Identifies Potent Drug‐Like Inhibitors of the Ceramide Transport Protein (CERT)” (Chemistry (Weinheim an Der Bergstrasse, Germany), 2020).

The experiment deals with T1, CERT (Homo sapiens, UniProt Q9Y5P4).
T1 construct: made in house; host or cells: E. coli BL21 (DE3), pET-28a(+)
T1 sequence (Q9Y5P4 1-598 isoform Q9Y5P4-2): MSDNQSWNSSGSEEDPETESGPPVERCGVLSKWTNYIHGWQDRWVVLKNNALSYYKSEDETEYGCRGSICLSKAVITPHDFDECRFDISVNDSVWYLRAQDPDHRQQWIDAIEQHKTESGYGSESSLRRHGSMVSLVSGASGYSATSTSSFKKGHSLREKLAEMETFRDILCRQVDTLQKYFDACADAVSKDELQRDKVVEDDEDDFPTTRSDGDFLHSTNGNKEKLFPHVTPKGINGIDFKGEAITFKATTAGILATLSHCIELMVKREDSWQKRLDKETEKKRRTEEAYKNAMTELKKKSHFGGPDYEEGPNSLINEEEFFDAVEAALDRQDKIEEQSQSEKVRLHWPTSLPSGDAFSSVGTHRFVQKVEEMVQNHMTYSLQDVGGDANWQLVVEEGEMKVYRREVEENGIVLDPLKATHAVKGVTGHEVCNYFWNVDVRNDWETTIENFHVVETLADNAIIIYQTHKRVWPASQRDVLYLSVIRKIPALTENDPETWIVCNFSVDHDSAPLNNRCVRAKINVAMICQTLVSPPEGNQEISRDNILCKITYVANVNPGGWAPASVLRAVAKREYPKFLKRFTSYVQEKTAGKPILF
As to the kind of experiment: NR-ceramide fluorescence competition assay. The experiment is classed as binding. The settings on record: 1 μM Nile red ceramide. An excerpt: Having the identified hits from CERT-transfer assay, we were interested in further understanding the relationship between the CERT-transfer inhibitory activity and CERT-binding affinity. With this goal in mind, we have developed a homogenous competitive assay based on the binding of fluorescently-labeled ceramide to CERT-protein (Fig S6). It’s well known that Nile Red is […]
than in hydrophilic one. Based on this knowledge, we have designed a fluorescently-labeled probe in which the Nile Red-tag was incorporated into the ceramide fatty acid moiety. The NR-ceramide […]
excellent signal-to-noise ratio (28-fold, Fig S7.A). Equilibration takes ~1h of incubation at 30°C.
Furthermore, this assay is a simple mix-and read format and uses only low amounts of fluorophore (1µM) and CERT-protein (12.5µg/assay).
The assay was performed in non-binding black-bottom 96-well microplate (Greiner Bio-One). To each well was added 1µL HPA12 (final concentration 2.5µM) or DMSO, followed by 98 µL of the CERT aliquot (12.5µg/well). After the mixture was incubated for 40 min at 30°C, 1µL NR-ceramide (final concentration 1µM) was added. Controls were triplicates of 10mM Tris.HCl buffer (pH 7.4, 250 mM sucrose) with 2µL DMSO, CERT aliquot (12.5µg/well) with 2µL DMSO, and 1µL NR-ceramide (final concentration 1µM) in 10mM Tris.HCl buffer (pH 7.4, 250 mM sucrose) with 1µL DMSO. The plate was then sealed with transparent Thermowell seal tape and placed in the microplate reader (LABTECH) at 30°C with shaking. The fluorescence was measured from the top over 80min (number of cycles 35, delay 70 sec) with excitation filter 540 nm and emission filter 640 nm. The competitive CERT-binding activity was calculated using the formula: Ix = I(À2-Y)/I0(À1-X), where À1 is the average of the florescence of the control of NR-ceramide in Tris.HCl buffer, X is the average of the fluorescence of the buffer alone, À2 is the fluorescence average of the assay mixture, Y is the fluorescence average of the CERT aliquot with inhibitor/DMSO (Fig […]
It is however lower than the differentiation in the transfer assay (Fig S8B).
3.2 High throughput screening for CERT-activity and Data analysis
In order to validate the performance of developed assay in high-throughput screening format, the hits from ‘confirmed-hit group’ (45 hits) were screened for their competitive CERT-binding activity. The assay was performed as mentioned in the previous sub-section 3.1. Briefly, 1µL tested compound (final concentration 1µM, 2.5µM, 5µM, 10µM) or DMSO for control, and 98 µL CERT stock solution were sequentially added into a non-binding 96-well microplate. The plate was sealed and incubated at 30°C for 40 min, before 1µL NR-ceramide (final concentration 1µM) was added.
Controls per plate were triplicates of 10mM Tris.HCl buffer (pH 7.4, 250 mM sucrose) with 2µL DMSO, CERT aliquot (12.5µg/well) with 2µL DMSO, 1µL NR-ceramide (final concentration 1µM) in 10mM Tris.HCl buffer (pH 7.4, 250 mM sucrose), and HPA12 as a reference inhibitor (final concentration of 1µM, and 2.5µM, 5µM). The plate was sealed with transparent Thermowell seal tape and the assay was allowed to proceed as described above using excitation filter 540 nm and emission filter 640 nm. The competitive CERT-binding activity was calculated using the formula: Ix = I(À2-Y)/I0(À1-X), where À1 is the average of the florescence of the control 1µL NR-ceramide in Tris.HCl buffer, X is the average of the fluorescence of the buffer alone, À2 is the average of the fluorescence of assay mixture treated with tested compound or DMSO, Y is the average of the fluorescence of CERT aliquot with inhibitor/DMSO.

Take `CCCCCCCCCCCC(=O)NC(CO)CC(O)c1ccccc1` (single isomer, unassigned) [R,R diastereomer of HPA‐12, N-(3Hydroxy-1-hydroxymethyl-3-phenylpropyl)-dodecamide]: the “activity in the NR ceramide competition assay” value is given as “much less pronounced”.
